Assay results reported in patent US8530623B2, “Proteasome-activating lightening peptides and compositions containing same” (ISP Investments Inc., priority 2009, dated 2013).
Where no end group is shown, it is not given here.

System: melanin present in the epidermis of human skin samples
Test: Depigmenting effect ex vivo on human skin biopsies (Fontana-Masson melanin staining)
Type: cell-based
Settings: 2 applications per day
Procedure: 6 mm diameter biopsies are taken from human skin samples. These biopsies are maintained in ex vivo survival in the presence of a specific medium (DMEM 1 g/L, HAMF12, SVF and antibiotics) on inserts deposited in 6-well plates. The biopsies are then pretreated for 24 hours with the active principle at 3% concentration at a rate of 2 applications per day. Other skin samples will not be pretreated with the active principle and will be used as the control condition. Subsequently, the biopsies are subjected to UVB irradiation at a rate of 100 mJ/cm^2. The pretreated biopsies are again treated for 24 hours with the active principle at 3% concentration at a rate of 2 applications per day. After this second treatment, a quantitative evaluation of the quantity of melanin present in the epidermis of skin samples is carried out histologically, with an optical microscope, after staining according to the Fontana-Masson method.
To do this, the skin biopsies are enclosed in paraffin and histological sections with a thickness of 4 μm are made. These sections are then stained by the Fontana-Masson technique: The paraffin is removed from the slides; the slides being hydrated and then treated with a silver ammonium hydroxide solution. […]

Substance: Asp-Cys-Arg-NH2 [SEQ ID No. 2]
- melanin level (pigmentation level) in the epidermis, absence of UVB irradiation (active principle at 3% concentration, 24 hours, no UVB, vs untreated skin, optical microscope): reduces the melanin level
- melanin synthesis induced by UVB irradiation (pigmentation level after UVB) (pretreated 24 hours at 3%, UVB 100 mJ/cm^2, treated again 24 hours, vs untreated control): very distinctly reduced
